Patent publication US8951964B2, “Phenanthridine macrocyclic hepatitis C serine protease inhibitors” (priority 2010, dated 2015)
pEC50: −log10 of the molar value.

tested on: genotype 1a transient replicon (1a-H77); experiment: 1a transient replicon (luciferase reporter); type: cell-based, HCV; conditions: Hepatitis C virus, HuH-7 cells, 5% FBS

**Q.** With `Cn1ccc(C(=O)N[C@H]2CCCCC/C=C\[C@@H]3C[C@@]3(C(=O)NS(=O)(=O)C3(C)CC3)NC(=O)[C@@H]3C[C@@H](Oc4nc5cc(F)ccc5c5cc(OC(F)(F)F)ccc45)CN3C2=O)n1` as the compound, how does the pEC50 read?
**A.** 9.30 to 10.00

**Q.** How did the pEC50 turn out when `Cc1cc(C(=O)N[C@H]2CCCCC/C=C\[C@@H]3C[C@@]3(C(=O)NS(=O)(=O)C3(C)CC3)NC(=O)[C@@H]3C[C@@H](Oc4nc5cc(OC(F)(F)F)ccc5c5ccc(F)cc45)CN3C2=O)no1` was run?
**A.** 9.30 to 10.00

**Q.** `CC1(S(=O)(=O)NC(=O)[C@@]23C[C@H]2/C=C\CCCCC[C@H](NC(=O)c2ccon2)C(=O)N2C[C@H](Oc4nc5cc(OC(F)(F)F)ccc5c5cc(F)ccc45)C[C@H]2C(=O)N3)CC1` was tested. Which pEC50 did it give?
**A.** 9.30 to 10.00

**Q.** `CC1(S(=O)(=O)NC(=O)[C@@]23C[C@H]2/C=C\CCCCC[C@H](NC(=O)c2ccn(C(F)F)n2)C(=O)N2C[C@H](Oc4nc5cc(F)ccc5c5cc(OC(F)(F)F)ccc45)C[C@H]2C(=O)N3)CC1` was tested. Which pEC50 did it give?
**A.** 9.30 to 10.00

**Q.** `CC1(S(=O)(=O)NC(=O)[C@@]23C[C@H]2/C=C\CCCCC[C@H](NC(=O)c2ccon2)C(=O)N2C[C@H](Oc4nc5cc(OC(F)(F)F)ccc5c5ccccc45)C[C@H]2C(=O)N3)CC1` was tested. Which pEC50 did it give?
**A.** > 10.00

**Q.** `Cc1ccc(C(=O)N[C@H]2CCCCC/C=C\[C@@H]3C[C@@]3(C(=O)NS(=O)(=O)C3(C)CC3)NC(=O)[C@@H]3C[C@@H](Oc4nc5ccccc5c5cc(F)ccc45)CN3C2=O)o1` was tested. Which pEC50 did it give?
**A.** 9.30 to 10.00

**Q.** With `Cn1ccc(C(=O)N[C@H]2CCCCC/C=C\[C@@H]3C[C@@]3(C(=O)NS(=O)(=O)C3(C)CC3)NC(=O)[C@@H]3C[C@@H](Oc4nc5cc(F)ccc5c5ccc(OC(F)(F)F)cc45)CN3C2=O)n1` as the compound, how does the pEC50 read?
**A.** > 10.00

**Q.** With `CC1(S(=O)(=O)NC(=O)[C@@]23C[C@H]2/C=C\CCCCC[C@H](NC(=O)c2ccon2)C(=O)N2C[C@H](Oc4nc5cc(OC(F)(F)F)ccc5c5ccc(F)cc45)C[C@H]2C(=O)N3)CC1` as the compound, how does the pEC50 read?
**A.** > 10.00

**Q.** How did the pEC50 turn out when `CC1(S(=O)(=O)NC(=O)[C@@]23C[C@H]2/C=C\CCCCC[C@H](NC(=O)c2cncs2)C(=O)N2C[C@H](Oc4nc5cc(OC(F)(F)F)ccc5c5ccc(F)cc45)C[C@H]2C(=O)N3)CC1` was run?
**A.** 9.30 to 10.00

**Q.** `Cc1cc(C(=O)N[C@H]2CCCCC/C=C\[C@@H]3C[C@@]3(C(=O)NS(=O)(=O)C3CC3)NC(=O)[C@@H]3C[C@@H](Oc4nc5cc(F)ccc5c5cc(OC(F)(F)F)ccc45)CN3C2=O)no1` was tested. Which pEC50 did it give?
**A.** > 10.00

**Q.** With `Cc1ccc(C(=O)N[C@H]2CCCCC/C=C\[C@@H]3C[C@@]3(C(=O)NS(=O)(=O)C3(C)CC3)NC(=O)[C@@H]3C[C@@H](Oc4nc5cc(OC(F)(F)F)ccc5c5cc(F)ccc45)CN3C2=O)s1` as the compound, how does the pEC50 read?
**A.** 9.00 to 9.30

**Q.** How did the pEC50 turn out when `Cc1cc(C(=O)N[C@H]2CCCCC/C=C\[C@@H]3C[C@@]3(C(=O)NS(=O)(=O)C3(C)CC3)NC(=O)[C@@H]3C[C@@H](Oc4nc5ccccc5c5ccc(OC(F)(F)F)cc45)CN3C2=O)no1` was run?
**A.** > 10.00

**Q.** How did the pEC50 turn out when `Cc1ccc(C(=O)N[C@H]2CCCCC/C=C\[C@@H]3C[C@@]3(C(=O)NS(=O)(=O)C3(C)CC3)NC(=O)[C@@H]3C[C@@H](Oc4nc5ccccc5c5ccc(OC(F)(F)F)cc45)CN3C2=O)o1` was run?
**A.** 9.30 to 10.00

tested on: genotype 1b transient replicon; experiment: 1b transient replicon (luciferase reporter); type: cell-based, HCV; conditions: Hepatitis C virus, HuH-7 cells, 5% FBS

**Q.** With `Cn1ccc(C(=O)N[C@H]2CCCCC/C=C\[C@@H]3C[C@@]3(C(=O)NS(=O)(=O)C3(C)CC3)NC(=O)[C@@H]3C[C@@H](Oc4nc5cc(F)ccc5c5cc(OC(F)(F)F)ccc45)CN3C2=O)n1` as the compound, how does the pEC50 read?
**A.** 9.30 to 10.00

**Q.** `Cc1cc(C(=O)N[C@H]2CCCCC/C=C\[C@@H]3C[C@@]3(C(=O)NS(=O)(=O)C3(C)CC3)NC(=O)[C@@H]3C[C@@H](Oc4nc5cc(OC(F)(F)F)ccc5c5ccc(F)cc45)CN3C2=O)no1` was tested. Which pEC50 did it give?
**A.** 9.30 to 10.00

**Q.** `CC1(S(=O)(=O)NC(=O)[C@@]23C[C@H]2/C=C\CCCCC[C@H](NC(=O)c2ccon2)C(=O)N2C[C@H](Oc4nc5cc(OC(F)(F)F)ccc5c5cc(F)ccc45)C[C@H]2C(=O)N3)CC1` was tested. Which pEC50 did it give?
**A.** 9.30 to 10.00

**Q.** How did the pEC50 turn out when `CC1(S(=O)(=O)NC(=O)[C@@]23C[C@H]2/C=C\CCCCC[C@H](NC(=O)c2ccn(C(F)F)n2)C(=O)N2C[C@H](Oc4nc5cc(F)ccc5c5cc(OC(F)(F)F)ccc45)C[C@H]2C(=O)N3)CC1` was run?
**A.** 9.30 to 10.00

**Q.** With `CC1(S(=O)(=O)NC(=O)[C@@]23C[C@H]2/C=C\CCCCC[C@H](NC(=O)c2ccon2)C(=O)N2C[C@H](Oc4nc5cc(OC(F)(F)F)ccc5c5ccccc45)C[C@H]2C(=O)N3)CC1` as the compound, how does the pEC50 read?
**A.** > 10.00

**Q.** How did the pEC50 turn out when `Cc1ccc(C(=O)N[C@H]2CCCCC/C=C\[C@@H]3C[C@@]3(C(=O)NS(=O)(=O)C3(C)CC3)NC(=O)[C@@H]3C[C@@H](Oc4nc5ccccc5c5cc(F)ccc45)CN3C2=O)o1` was run?
**A.** 9.30 to 10.00

**Q.** `Cn1ccc(C(=O)N[C@H]2CCCCC/C=C\[C@@H]3C[C@@]3(C(=O)NS(=O)(=O)C3(C)CC3)NC(=O)[C@@H]3C[C@@H](Oc4nc5cc(F)ccc5c5ccc(OC(F)(F)F)cc45)CN3C2=O)n1` was tested. Which pEC50 did it give?
**A.** 9.30 to 10.00

**Q.** `CC1(S(=O)(=O)NC(=O)[C@@]23C[C@H]2/C=C\CCCCC[C@H](NC(=O)c2ccon2)C(=O)N2C[C@H](Oc4nc5cc(OC(F)(F)F)ccc5c5ccc(F)cc45)C[C@H]2C(=O)N3)CC1` was tested. Which pEC50 did it give?
**A.** > 10.00

**Q.** How did the pEC50 turn out when `CC1(S(=O)(=O)NC(=O)[C@@]23C[C@H]2/C=C\CCCCC[C@H](NC(=O)c2cncs2)C(=O)N2C[C@H](Oc4nc5cc(OC(F)(F)F)ccc5c5ccc(F)cc45)C[C@H]2C(=O)N3)CC1` was run?
**A.** 9.30 to 10.00

**Q.** How did the pEC50 turn out when `Cc1cc(C(=O)N[C@H]2CCCCC/C=C\[C@@H]3C[C@@]3(C(=O)NS(=O)(=O)C3CC3)NC(=O)[C@@H]3C[C@@H](Oc4nc5cc(F)ccc5c5cc(OC(F)(F)F)ccc45)CN3C2=O)no1` was run?
**A.** 9.30 to 10.00

**Q.** With `Cc1ccc(C(=O)N[C@H]2CCCCC/C=C\[C@@H]3C[C@@]3(C(=O)NS(=O)(=O)C3(C)CC3)NC(=O)[C@@H]3C[C@@H](Oc4nc5cc(OC(F)(F)F)ccc5c5cc(F)ccc45)CN3C2=O)s1` as the compound, how does the pEC50 read?
**A.** 9.30 to 10.00

**Q.** With `Cc1cc(C(=O)N[C@H]2CCCCC/C=C\[C@@H]3C[C@@]3(C(=O)NS(=O)(=O)C3(C)CC3)NC(=O)[C@@H]3C[C@@H](Oc4nc5ccccc5c5ccc(OC(F)(F)F)cc45)CN3C2=O)no1` as the compound, how does the pEC50 read?
**A.** 9.30 to 10.00

**Q.** With `Cc1ccc(C(=O)N[C@H]2CCCCC/C=C\[C@@H]3C[C@@]3(C(=O)NS(=O)(=O)C3(C)CC3)NC(=O)[C@@H]3C[C@@H](Oc4nc5ccccc5c5ccc(OC(F)(F)F)cc45)CN3C2=O)o1` as the compound, how does the pEC50 read?
**A.** 9.30 to 10.00

tested on: genotype 3a NS3 gene in transient replicon; experiment: 3a transient replicon (luciferase reporter); type: cell-based, HCV; conditions: Hepatitis C virus, Huh-7, read-out: 3a transient replicon (nM)

**Q.** For `Cn1ccc(C(=O)N[C@H]2CCCCC/C=C\[C@@H]3C[C@@]3(C(=O)NS(=O)(=O)C3(C)CC3)NC(=O)[C@@H]3C[C@@H](Oc4nc5cc(F)ccc5c5cc(OC(F)(F)F)ccc45)CN3C2=O)n1`, which EC50 is on record?
**A.** > 1 nM

**Q.** For `Cc1cc(C(=O)N[C@H]2CCCCC/C=C\[C@@H]3C[C@@]3(C(=O)NS(=O)(=O)C3(C)CC3)NC(=O)[C@@H]3C[C@@H](Oc4nc5cc(OC(F)(F)F)ccc5c5ccc(F)cc45)CN3C2=O)no1`, which EC50 is on record?
**A.** > 1 nM

**Q.** With `CC1(S(=O)(=O)NC(=O)[C@@]23C[C@H]2/C=C\CCCCC[C@H](NC(=O)c2ccon2)C(=O)N2C[C@H](Oc4nc5cc(OC(F)(F)F)ccc5c5cc(F)ccc45)C[C@H]2C(=O)N3)CC1` as the compound, how does the EC50 read?
**A.** 0.1 to 0.5 nM

**Q.** How did the EC50 turn out when `CC1(S(=O)(=O)NC(=O)[C@@]23C[C@H]2/C=C\CCCCC[C@H](NC(=O)c2ccn(C(F)F)n2)C(=O)N2C[C@H](Oc4nc5cc(F)ccc5c5cc(OC(F)(F)F)ccc45)C[C@H]2C(=O)N3)CC1` was run?
**A.** > 1 nM

**Q.** How did the EC50 turn out when `CC1(S(=O)(=O)NC(=O)[C@@]23C[C@H]2/C=C\CCCCC[C@H](NC(=O)c2ccon2)C(=O)N2C[C@H](Oc4nc5cc(OC(F)(F)F)ccc5c5ccccc45)C[C@H]2C(=O)N3)CC1` was run?
**A.** 0.1 to 0.5 nM

**Q.** Which EC50 does the source give for `Cc1ccc(C(=O)N[C@H]2CCCCC/C=C\[C@@H]3C[C@@]3(C(=O)NS(=O)(=O)C3(C)CC3)NC(=O)[C@@H]3C[C@@H](Oc4nc5ccccc5c5cc(F)ccc45)CN3C2=O)o1` here?
**A.** 0.1 to 0.5 nM

**Q.** `Cn1ccc(C(=O)N[C@H]2CCCCC/C=C\[C@@H]3C[C@@]3(C(=O)NS(=O)(=O)C3(C)CC3)NC(=O)[C@@H]3C[C@@H](Oc4nc5cc(F)ccc5c5ccc(OC(F)(F)F)cc45)CN3C2=O)n1` was tested. Which EC50 did it give?
**A.** 0.1 to 0.5 nM

**Q.** For `CC1(S(=O)(=O)NC(=O)[C@@]23C[C@H]2/C=C\CCCCC[C@H](NC(=O)c2ccon2)C(=O)N2C[C@H](Oc4nc5cc(OC(F)(F)F)ccc5c5ccc(F)cc45)C[C@H]2C(=O)N3)CC1`, which EC50 is on record?
**A.** 0.5 to 1 nM

**Q.** How did the EC50 turn out when `CC1(S(=O)(=O)NC(=O)[C@@]23C[C@H]2/C=C\CCCCC[C@H](NC(=O)c2cncs2)C(=O)N2C[C@H](Oc4nc5cc(OC(F)(F)F)ccc5c5ccc(F)cc45)C[C@H]2C(=O)N3)CC1` was run?
**A.** > 1 nM

**Q.** With `Cc1cc(C(=O)N[C@H]2CCCCC/C=C\[C@@H]3C[C@@]3(C(=O)NS(=O)(=O)C3CC3)NC(=O)[C@@H]3C[C@@H](Oc4nc5cc(F)ccc5c5cc(OC(F)(F)F)ccc45)CN3C2=O)no1` as the compound, how does the EC50 read?
**A.** > 1 nM

**Q.** `Cc1ccc(C(=O)N[C@H]2CCCCC/C=C\[C@@H]3C[C@@]3(C(=O)NS(=O)(=O)C3(C)CC3)NC(=O)[C@@H]3C[C@@H](Oc4nc5cc(OC(F)(F)F)ccc5c5cc(F)ccc45)CN3C2=O)s1` was tested. Which EC50 did it give?
**A.** 0.1 to 0.5 nM

**Q.** How did the EC50 turn out when `Cc1cc(C(=O)N[C@H]2CCCCC/C=C\[C@@H]3C[C@@]3(C(=O)NS(=O)(=O)C3(C)CC3)NC(=O)[C@@H]3C[C@@H](Oc4nc5ccccc5c5ccc(OC(F)(F)F)cc45)CN3C2=O)no1` was run?
**A.** > 1 nM

**Q.** `Cc1ccc(C(=O)N[C@H]2CCCCC/C=C\[C@@H]3C[C@@]3(C(=O)NS(=O)(=O)C3(C)CC3)NC(=O)[C@@H]3C[C@@H](Oc4nc5ccccc5c5ccc(OC(F)(F)F)cc45)CN3C2=O)o1` was tested. Which EC50 did it give?
**A.** < 0.1 nM
